# Patent publication US20260258502A1, “METHODS AND REAGENTS FOR DETECTION OF CIRCULAR DNA MOLECULES IN BIOLOGICAL SAMPLES” (priority 2022, published 2026)
# Tested on: Human TK6 cells
# Assay: Duplex sequencing (DS) of human TK6 cells treated with genotoxic compounds: putative DNA circle frequency and mutation frequency
# Type: cell-based
# Conditions: detected by DS, dose groups vs untreated group, proxy for clastogenicity
# Description: To assess whether DNA circle frequency is a proxy for clastogenicity, DS data for various genotoxic agents were re-analyzed. ENU is a well-known potent mutagen and clastogen.
# Human TK6 cells were treated with different potentially genotoxic compounds. DS libraries were prepared with 500 ng of DNA input. […] FIG. 10A-10B show the frequency of putative circles, calculated as frequency=(#circles detected)/(#duplex bases sequenced).
smiles,measurement,value
CCN(N=O)C(N)=O [ENU],frequency of putative DNA circles per duplex base pair (#circles detected)/(#duplex bases sequenced),"increased candidate DNA circle frequency in a dose-dependent manner, reaching statistical significance in the highest dose group"
